Laboratory results reported in US10765114B2, “4-amino-6-(pyridyl and 2-substitutedphenyl)-picolinates and 6-amino-2-(pyridyl and 2-substitutedphenyl)-pyrimidine-4-carboxylates and their use as herbicides” (Dow AgroSciences LLC, priority 2013, dated 2020).

Key:
Assay in all cases: Post-Emergent Test III (Wheat and Barley)
APESV (windgrass) = assay type: in vivo, Apera spica-venti
Procedure, shortened: (§1)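 Test compounds, formulated in acetone/DMSO with aqueous crop oil concentrate and surfactant, were applied over the canopy at 187 L/ha at several serially halved rates. Subirrigated plants were scored for percent injury at 21 days, with GR10–GR90 derived by probit analysis.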

KCHSC (kochia) = assay type: in vivo, Kochia scoparia
Procedure, shortened: as §1

HORSS = assay type: in vivo
Procedure, shortened: as §1

TRZSS = assay type: in vivo
Procedure, shortened: as §1

PAPRH (common poppy) = assay type: in vivo, Papaver rhoeas; details: for Visual Growth Reduction (%) 21 Days After Application, PAPRH: postemergence
Procedure, shortened: as §1

POLCO (wild buckwheat) = assay type: in vivo, Polygonum convolvulus; details: for Visual Growth Reduction (%) 21 Days After Application, POLCO: postemergence
Procedure, shortened: as §1

SASKR (Russian thistle) = assay type: in vivo, Salsola tragus; details: for Visual Growth Reduction (%) 21 Days After Application, SASKR: postemergence
Procedure, shortened: as §1

[1] = test system: VERPE (Persian speedwell); assay type: in vivo, Veronica persica; details: for Visual Growth Reduction (%) 21 Days After Application, VERPE: postemergence
Procedure, shortened: as §1

[2] = effective dose for growth reduction of 50 percent, probit analysis
[3] = effective dose for growth reduction of 80 percent, probit analysis
[4] = effective dose for growth reduction of 90 percent, probit analysis
[5] = effective dose for growth reduction of 10 percent, probit analysis
[6] = effective dose for growth reduction of 20 percent, probit analysis

Work on `COC(=O)c1nc(-c2ccc(Cl)c(F)c2C)cc(N)c1Cl` [Compound 73] yielded a pest or weed control at 35 g/ha (APESV (windgrass); Apera spica-venti, post-emergence, 504 h, 35 g ai/ha, postemergence, read-out: Visual Growth Reduction (%) 21 Days After Application, APESV) of 45 to 59%, a pest or weed control at 70 g/ha (APESV (windgrass); Apera spica-venti, post-emergence, 504 h, 70 g ai/ha, postemergence, read-out: Visual Growth Reduction (%) 21 Days After Application, APESV) of 60 to 74% and a pest or weed control at 140 g/ha (APESV (windgrass); Apera spica-venti, post-emergence, 504 h, 140 g ai/ha, postemergence, read-out: Visual Growth Reduction (%) 21 Days After Application, APESV) of 85 to 94%. The “GR50, APESV” value (APESV (windgrass); [2]) was 32 g ai/ha, the “GR80, APESV” value (APESV (windgrass); [3]) was 90 g ai/ha and the “GR90, APESV” value (APESV (windgrass); [4]) was greater than 140 g ai/ha. The pest or weed control at 35 g/ha (KCHSC (kochia); Bassia scoparia, post-emergence, 504 h, 35 g ai/ha, postemergence, read-out: Visual Growth Reduction (%) 21 Days After Application, KCHSC) was 85 to 94%, the pest or weed control at 70 g/ha (KCHSC (kochia); Bassia scoparia, post-emergence, 504 h, 70 g ai/ha, postemergence, read-out: Visual Growth Reduction (%) 21 Days After Application, KCHSC) was 95 to 100% and the pest or weed control at 140 g/ha (KCHSC (kochia); Bassia scoparia, post-emergence, 504 h, 140 g ai/ha, postemergence, read-out: Visual Growth Reduction (%) 21 Days After Application, KCHSC) was 95 to 100%. For the same compound, the “GR50, KCHSC” value (KCHSC (kochia); [2]) was 8 g ai/ha, the “GR80, KCHSC” value (KCHSC (kochia); [3]) was 21 g ai/ha and the “GR90, KCHSC” value (KCHSC (kochia); [4]) was 35 g ai/ha. For the same compound, the pest or weed control at 35 g/ha (HORSS; Hordeum vulgare, post-emergence, 504 h, 35 g ai/ha, postemergence, read-out: Visual Growth Reduction (%) 21 Days After Application, HORSS) was 60 to 74%, the pest or weed control at 70 g/ha (HORSS; Hordeum vulgare, post-emergence, 504 h, 70 g ai/ha, postemergence, read-out: Visual Growth Reduction (%) 21 Days After Application, HORSS) was 60 to 74% and the pest or weed control at 140 g/ha (HORSS; Hordeum vulgare, post-emergence, 504 h, 140 g ai/ha, postemergence, read-out: Visual Growth Reduction (%) 21 Days After Application, HORSS) was 75 to 84%. For the same compound, the “GR10, HORSS” value (HORSS; [5]) was 2 g ai/ha, the “GR20, HORSS” value (HORSS; [6]) was 5 g ai/ha and the pest or weed control at 35 g/ha (TRZSS; Triticum aestivum, post-emergence, 504 h, 35 g ai/ha, postemergence, read-out: Visual Growth Reduction (%) 21 Days After Application, TRZSS) was 60 to 74%. The pest or weed control at 70 g/ha (TRZSS; Triticum aestivum, post-emergence, 504 h, 70 g ai/ha, postemergence, read-out: Visual Growth Reduction (%) 21 Days After Application, TRZSS) was 60 to 74%, the pest or weed control at 140 g/ha (TRZSS; Triticum aestivum, post-emergence, 504 h, 140 g ai/ha, postemergence, read-out: Visual Growth Reduction (%) 21 Days After Application, TRZSS) was 75 to 84% and the “GR10, TRZSS” value (TRZSS; [5]) was 3 g ai/ha. The “GR20, TRZSS” value (TRZSS; [6]) was 6 g ai/ha, the “Visual Growth Reduction (%) 21 Days After Application, PAPRH” value (PAPRH (common poppy); 35 g ai/ha) was “D (60-74)” and the “Visual Growth Reduction (%) 21 Days After Application, PAPRH” value (PAPRH (common poppy); 70 g ai/ha) was “D (60-74)”. The “Visual Growth Reduction (%) 21 Days After Application, PAPRH” value (PAPRH (common poppy); 140 g ai/ha) was “A (95-100)”, the “GR50, PAPRH” value (PAPRH (common poppy); [2]) was 15 g ai/ha and the “GR80, PAPRH” value (PAPRH (common poppy); [3]) was 48 g ai/ha. The “GR90, PAPRH” value (PAPRH (common poppy); [4]) was 90 g ai/ha, the “Visual Growth Reduction (%) 21 Days After Application, POLCO” value (POLCO (wild buckwheat); 35 g ai/ha) was “A (95-100)” and the “Visual Growth Reduction (%) 21 Days After Application, POLCO” value (POLCO (wild buckwheat); 70 g ai/ha) was “A (95-100)”. For the same compound, the “Visual Growth Reduction (%) 21 Days After Application, POLCO” value (POLCO (wild buckwheat); 140 g ai/ha) was “A (95-100)”, the “GR50, POLCO” value (POLCO (wild buckwheat); [2]) was 7 g ai/ha and the “GR80, POLCO” value (POLCO (wild buckwheat); [3]) was 10 g ai/ha. The “GR90, POLCO” value (POLCO (wild buckwheat); [4]) was 12 g ai/ha, the “Visual Growth Reduction (%) 21 Days After Application, SASKR” value (SASKR (Russian thistle); 35 g ai/ha) was “C (75-84)” and the “Visual Growth Reduction (%) 21 Days After Application, SASKR” value (SASKR (Russian thistle); 70 g ai/ha) was “C (75-84)”. The “Visual Growth Reduction (%) 21 Days After Application, SASKR” value (SASKR (Russian thistle); 140 g ai/ha) was “C (75-84)”, the “GR50, SASKR” value (SASKR (Russian thistle); [2]) was 1 g ai/ha and the “GR80, SASKR” value (SASKR (Russian thistle); [3]) was 84 g ai/ha. The “GR90, SASKR” value (SASKR (Russian thistle); [4]) was greater than 140 g ai/ha, the “Visual Growth Reduction (%) 21 Days After Application, VERPE” value ([1]; 35 g ai/ha) was “G (0-29)” and the “Visual Growth Reduction (%) 21 Days After Application, VERPE” value ([1]; 70 g ai/ha) was “G (0-29)”. For the same compound, the “Visual Growth Reduction (%) 21 Days After Application, VERPE” value ([1]; 140 g ai/ha) was “F (30-44)”, the “GR50, VERPE” value [1, 2] was greater than 140 g ai/ha and the “GR80, VERPE” value [1, 3] was greater than 140 g ai/ha. For the same compound, the “GR90, VERPE” value [1, 4] was greater than 140 g ai/ha.
